Measured values as given in patent publication US20240317721A1, “PYRAZOLYL DERIVATIVES AS INHIBITORS OF THE KRAS MUTANT PROTEIN” (NOVARTIS AG, priority 2021, published 2024).

Target: KRasG12C (M1-K169, biotinylated on the N-terminus) (Homo sapiens (Human), UniProt P01116, G12C)
Assay: Covalent competition assay: scintillation proximity assay (SPA) quantifying covalent modification of KRASG12C
Type: binding
Details: competition with radiolabeled covalent probe (Compound B/Compound A), 2 hours incubation, 10 nM KRasG12C
Method in brief: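 Scintillation proximity readout after streptavidin bead capture (30 min) of biotinylated KRasG12C(M1-K169):GDP, 10 nM final, which was covalently labelled over 2 h by 25 nM radio-probe plus 475 nM cold probe unless blocked by compound.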

Row | SMILES | IC50
1 | C=CC(=O)N1CC2(CC(n3nc(N4CCN(C(C)=O)CC4)c(-c4c(Cl)ccc5[nH]ncc45)c3C)C2)C1C (single isomer, unassigned) [Example 195a, 1-(6-(3-(4-Acetylpiperazin-1-yl)-4-(5-chloro-1H-indazol-4-yl)-5-methyl-1H-pyrazol-1-yl)-1-methyl-2-azaspiro[3.3]heptan-2-yl)prop-2-en-1-one] | 10400 nM
2 | C=CC(=O)N1CC2(CC(n3nc(N4CCN(C(C)=O)CC4)c(-c4c(Cl)ccc5[nH]ncc45)c3C)C2)C1C (single isomer, unassigned) [Example 195b, 1-(6-(3-(4-Acetylpiperazin-1-yl)-4-(5-chloro-1H-indazol-4-yl)-5-methyl-1H-pyrazol-1-yl)-1-methyl-2-azaspiro[3.3]heptan-2-yl)prop-2-en-1-one] | > 50000 nM
3 | C=CC(=O)N1CC2(CC(n3nc(N4CCN(C(C)=O)CC4)c(-c4c(Cl)ccc5[nH]ncc45)c3C)C2)C1C (single isomer, unassigned) [Example 196a, 1-(6-(3-(4-acetylpiperazin-1-yl)-4-(5-chloro-1H-indazol-4-yl)-5-methyl-1H-pyrazol-1-yl)-1-methyl-2-azaspiro[3.3]heptan-2-yl)prop-2-en-1-one] | > 50000 nM
4 | C=CC(=O)N1CC2(CC(n3nc(N4CCN(C(C)=O)CC4)c(-c4c(Cl)ccc5[nH]ncc45)c3C)C2)C1C (single isomer, unassigned) [Example 196b, 1-(6-(3-(4-acetylpiperazin-1-yl)-4-(5-chloro-1H-indazol-4-yl)-5-methyl-1H-pyrazol-1-yl)-1-methyl-2-azaspiro[3.3]heptan-2-yl)prop-2-en-1-one] | 9000 nM
5 | C=CC(=O)N1CC2(CC(n3nc(N4CCN(C(C)=O)CC4)c(-c4c(Cl)ccc5[nH]ncc45)c3C)C2)C1C (single isomer, unassigned) [Example 197a, 1-(6-(3-(4-acetylpiperazin-1-yl)-4-(5-chloro-1H-indazol-4-yl)-5-methyl-1H-pyrazol-1-yl)-1-methyl-2-azaspiro[3.3]heptan-2-yl)prop-2-en-1-one] | > 50000 nM
6 | C=CC(=O)N1CC2(CC(n3nc(N4CCN(C(C)=O)CC4)c(-c4c(Cl)ccc5[nH]ncc45)c3C)C2)C1C (single isomer, unassigned) [Example 197b, 1-(6-(3-(4-acetylpiperazin-1-yl)-4-(5-chloro-1H-indazol-4-yl)-5-methyl-1H-pyrazol-1-yl)-1-methyl-2-azaspiro[3.3]heptan-2-yl)prop-2-en-1-one] | 49700 nM
7 | C=CC(=O)N1CC2(CC(n3nc(N4CCN(C(C)=O)CC4)c(-c4c(Cl)ccc5[nH]ncc45)c3C)C2)C1C (single isomer, unassigned) [Example 198a, 1-(6-(3-(4-acetylpiperazin-1-yl)-4-(5-chloro-1H-indazol-4-yl)-5-methyl-1H-pyrazol-1-yl)-1-methyl-2-azaspiro[3.3]heptan-2-yl)prop-2-en-1-one] | > 50000 nM
8 | C=CC(=O)N1CC2(CC(n3nc(N4CCN(C(C)=O)CC4)c(-c4c(Cl)ccc5[nH]ncc45)c3C)C2)C1C (single isomer, unassigned) [Example 198b, 1-(6-(3-(4-acetylpiperazin-1-yl)-4-(5-chloro-1H-indazol-4-yl)-5-methyl-1H-pyrazol-1-yl)-1-methyl-2-azaspiro[3.3]heptan-2-yl)prop-2-en-1-one] | > 50000 nM
9 | C=CC(=O)N1CC2(CC(n3nc(N4CCN(C[C@@H]5COCCO5)C[C@]4(C)CC)c(-c4c(Cl)c(C)cc5[nH]ncc45)c3C)C2)C1C (single isomer, unassigned) [Example 199a] | > 5000 nM
10 | C=CC(=O)N1CC2(CC(n3nc(N4CCN(C[C@@H]5COCCO5)C[C@]4(C)CC)c(-c4c(Cl)c(C)cc5[nH]ncc45)c3C)C2)C1C (single isomer, unassigned) [Example 199b] | 37 nM
11 | C=CC(=O)N1C[C@]2(C[C@H](n3nc(N4CCN(C[C@@H]5COCCO5)C[C@]4(C)CC)c(-c4c(Cl)c(C)cc5[nH]ncc45)c3C)C2)[C@H]1C (single isomer, unassigned) [Example 200a] | > 5000 nM
12 | C=CC(=O)N1C[C@]2(C[C@H](n3nc(N4CCN(C[C@@H]5COCCO5)C[C@]4(C)CC)c(-c4c(Cl)c(C)cc5[nH]ncc45)c3C)C2)[C@H]1C (single isomer, unassigned) [Example 200b] | 23 nM
13 | C=CC(=O)N1C[C@]2(C[C@H](n3nc(N4CC[C@@H](CN5CCN(C6COC6)CC5)CC4(C)C)c(-c4c(Cl)c(Cl)cc5[nH]ncc45)c3C)C2)[C@H]1C (single isomer, unassigned) [Example 201a] | 4300 nM
14 | C=CC(=O)N1C[C@]2(C[C@H](n3nc(N4CC[C@@H](CN5CCN(C6COC6)CC5)CC4(C)C)c(-c4c(Cl)c(Cl)cc5[nH]ncc45)c3C)C2)[C@H]1C (single isomer, unassigned) [Example 201b] | 17 nM
15 | C=CC(=O)N1CC2(CC(n3nc(N4CCC5(CN(C)CCO5)CC4(C)C)c(-c4c(Cl)c(C)cc5[nH]ncc45)c3C)C2)C1 (single isomer, unassigned) [Example 207a, 1-(6-(4-(5-chloro-6-methyl-1H-indazol-4-yl)-5-methyl-3-(4,8,8-trimethyl-1-oxa-4,9-diazaspiro[5.5]undecan-9-yl)-1H-pyrazol-1-yl)-2-azaspiro[3.3]heptan-2-yl)prop-2-en-1-one] | > 5000 nM
16 | C=CC(=O)N1CC2(CC(n3nc(N4CCC5(CN(C)CCO5)CC4(C)C)c(-c4c(Cl)c(C)cc5[nH]ncc45)c3C)C2)C1 (single isomer, unassigned) [Example 207b, 1-(6-(4-(5-chloro-6-methyl-1H-indazol-4-yl)-5-methyl-3-(4,8,8-trimethyl-1-oxa-4,9-diazaspiro[5.5]undecan-9-yl)-1H-pyrazol-1-yl)-2-azaspiro[3.3]heptan-2-yl)prop-2-en-1-one] | 20 nM
17 | C=CC(=O)N1CC2(CC(n3nc(N4CCC5(CN(C)CCO5)CC4(C)C)c(-c4c(Cl)c(C)cc5[nH]ncc45)c3C)C2)C1 (single isomer, unassigned) [Example 208a, 1-(6-(4-(5-chloro-6-methyl-1H-indazol-4-yl)-5-methyl-3-(4,8,8-trimethyl-1-oxa-4,9-diazaspiro[5.5]undecan-9-yl)-1H-pyrazol-1-yl)-2-azaspiro[3.3]heptan-2-yl)prop-2-en-1-one] | 64 nM
18 | C=CC(=O)N1CC2(CC(n3nc(N4CCC5(CN(C)CCO5)CC4(C)C)c(-c4c(Cl)c(C)cc5[nH]ncc45)c3C)C2)C1 (single isomer, unassigned) [Example 208b, 1-(6-(4-(5-chloro-6-methyl-1H-indazol-4-yl)-5-methyl-3-(4,8,8-trimethyl-1-oxa-4,9-diazaspiro[5.5]undecan-9-yl)-1H-pyrazol-1-yl)-2-azaspiro[3.3]heptan-2-yl)prop-2-en-1-one] | 3800 nM
19 | C=CC(=O)N1CC2(CC(n3nc(N4CCC(N5CC(OC)C5)CC4(C)C)c(-c4c(Cl)c(Cl)cc5[nH]ncc45)c3C)C2)C1 (single isomer, unassigned) [Example 209a, 1-(6-(4-(5,6-dichloro-1H-indazol-4-yl)-3-(4-(3-methoxyazetidin-1-yl)-2,2-dimethylpiperidin-1-yl)-5-methyl-1H-pyrazol-1-yl)-2-azaspiro[3.3]heptan-2-yl)prop-2-en-1-one] | 1100 nM
20 | C=CC(=O)N1CC2(CC(n3nc(N4CCC(N5CC(OC)C5)CC4(C)C)c(-c4c(Cl)c(Cl)cc5[nH]ncc45)c3C)C2)C1 (single isomer, unassigned) [Example 209b, 1-(6-(4-(5,6-dichloro-1H-indazol-4-yl)-3-(4-(3-methoxyazetidin-1-yl)-2,2-dimethylpiperidin-1-yl)-5-methyl-1H-pyrazol-1-yl)-2-azaspiro[3.3]heptan-2-yl)prop-2-en-1-one] | 12 nM
21 | C=CC(=O)N1CC2(CC(n3nc(N4CCC(C(=O)N5CCN(C)CC5)CC4(C)C)c(-c4c(Cl)c(Cl)cc5[nH]ncc45)c3C)C2)C1 (single isomer, unassigned) [Example 211a, 1-(6-(4-(5,6-dichloro-1H-indazol-4-yl)-3-(2,2-dimethyl-4-(4-methylpiperazine-1-carbonyl)piperidin-1-yl)-5-methyl-1H-pyrazol-1-yl)-2-azaspiro[3.3]heptan-2-yl)prop-2-en-1-one] | 1600 nM
22 | C=CC(=O)N1CC2(CC(n3nc(N4CCC(C(=O)N5CCN(C)CC5)CC4(C)C)c(-c4c(Cl)c(Cl)cc5[nH]ncc45)c3C)C2)C1 (single isomer, unassigned) [Example 211b, 1-(6-(4-(5,6-dichloro-1H-indazol-4-yl)-3-(2,2-dimethyl-4-(4-methylpiperazine-1-carbonyl)piperidin-1-yl)-5-methyl-1H-pyrazol-1-yl)-2-azaspiro[3.3]heptan-2-yl)prop-2-en-1-one] | 8 nM
23 | C=CC(=O)N1CC2(CC(n3nc(N4CCC(N5C[C@H]6C[C@@H]5CN6S(C)(=O)=O)CC4(C)C)c(-c4c(Cl)c(Cl)cc5[nH]ncc45)c3C)C2)C1 (single isomer, unassigned) [Example 212a] | 358 nM
24 | C=CC(=O)N1CC2(CC(n3nc(N4CCC(N5C[C@H]6C[C@@H]5CN6S(C)(=O)=O)CC4(C)C)c(-c4c(Cl)c(Cl)cc5[nH]ncc45)c3C)C2)C1 (single isomer, unassigned) [Example 212b] | 12 nM
25 | C=CC(=O)N1CC2(CC(n3nc(N4CC[C@@H](CN5CCOCC5)CC4(C)C)c(-c4c(Cl)c(Cl)cc5[nH]ncc45)c3C)C2)C1 (single isomer, unassigned) [Example 213a] | 3500 nM
26 | C=CC(=O)N1CC2(CC(n3nc(N4CC[C@@H](CN5CCOCC5)CC4(C)C)c(-c4c(Cl)c(Cl)cc5[nH]ncc45)c3C)C2)C1 (single isomer, unassigned) [Example 213b] | 12 nM
27 | C=CC(=O)N1CC2(CC(n3nc(N4CC[C@H](CN5CCOCC5)CC4(C)C)c(-c4c(Cl)c(Cl)cc5[nH]ncc45)c3C)C2)C1 (single isomer, unassigned) [Example 214a] | 290 nM
28 | C=CC(=O)N1CC2(CC(n3nc(N4CC[C@H](CN5CCOCC5)CC4(C)C)c(-c4c(Cl)c(Cl)cc5[nH]ncc45)c3C)C2)C1 (single isomer, unassigned) [Example 214b] | 679 nM
